According to the supplement of paper PMC10307832:

Experiments:
Experiment in all cases: relative viability (nuclei count vs DMSO), 5 days (fraction); higher = more cells survive
[1] = compound: Cc1ccc(C(=O)Nc2ccc(CN3CCN(C)CC3)c(C(F)(F)F)c2)cc1C#Cc1cnc2cccnn12 [Ponatinib] + O=C(c1cc(Cc2n[nH]c(=O)c3ccccc23)ccc1F)N1CCN(C(=O)C2CC2)CC1 [Olaparib] (partner 8 µM)
How it was run: (§1)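 Lung cancer cell lines in 1536-well plates got either a single drug or a fixed anchor-drug dose together with five library-drug doses (not always all listed) in √10 steps, by pin tool, on the day after seeding. Nuclei were counted after 5 days, and relative viability is the treated-to-vehicle ratio of nuclei counts. Values are medians of duplicate plates.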

[2] = compound: Cc1ccc(C(=O)Nc2ccc(CN3CCN(C)CC3)c(C(F)(F)F)c2)cc1C#Cc1cnc2cccnn12 [Ponatinib] + Nc1nc2[nH]cc(CCc3ccc(C(=O)N[C@@H](CCC(=O)O)C(=O)O)cc3)c2c(=O)[nH]1 [Pemetrexed] (partner 0.2 µM)
How it was run: as §1

[3] = compound: Cc1ccc(Nc2nccc(N(C)c3ccc4c(C)n(C)nc4c3)n2)cc1S(N)(=O)=O [Pazopanib] + O=C(CCCCCCC(=O)Nc1ccccc1)NO [Vorinostat] (partner 1 µM)
How it was run: as §1

[4] = compound: Cc1ccc(Nc2nccc(N(C)c3ccc4c(C)n(C)nc4c3)n2)cc1S(N)(=O)=O [Pazopanib] + CS(=O)(=O)N1CCN(Cc2cc3nc(-c4cccc5[nH]ncc45)nc(N4CCOCC4)c3s2)CC1 [Pictilisib] (partner 1 µM)
How it was run: as §1

Cell Line | relative viability ([1]; first compound 0.002 µM) | relative viability ([1]; first compound 0.006325 µM) | relative viability ([1]; first compound 0.06325 µM) | relative viability ([1]; first compound 0.2 µM) | relative viability ([2]; first compound 0.002 µM) | relative viability ([2]; first compound 0.006325 µM) | relative viability ([2]; first compound 0.06325 µM) | relative viability ([2]; first compound 0.2 µM) | relative viability ([3]; first compound 0.03162 µM) | relative viability ([3]; first compound 0.1 µM) | relative viability ([3]; first compound 0.3162 µM) | relative viability ([3]; first compound 1 µM) | relative viability ([4]; first compound 0.03162 µM) | relative viability ([4]; first compound 0.1 µM) | relative viability ([4]; first compound 0.3162 µM) | relative viability ([4]; first compound 1 µM) | relative viability ([3]; first compound 0.01 µM) | relative viability ([4]; first compound 0.01 µM)
LCLC-97TM1 | 0.48 | 0.452 | 0.385 | 0.334 | 0.166 | 0.142 | 0.167 | 0.161 | 0.877 | 0.58 | 0.797 | 0.736 | 0.196 | 0.195 | 0.201 | 0.179 |  | 
LCLC-103H | 0.754 | 0.743 | 0.838 | 0.694 | 0.446 | 0.5 | 0.483 | 0.416 | 0.804 | 0.753 | 0.823 | 0.842 | 0.575 | 0.635 | 0.764 | 0.588 | 0.692 | 0.531
LK-2 | 0.584 | 0.759 | 0.661 | 0.435 | 0.281 | 0.305 | 0.186 | 0.247 | 0.26 | 0.252 | 0.236 | 0.235 | 0.724 | 0.729 | 0.558 | 0.496 | 0.201 | 0.508
LOU-NH91 | 0.898 | 0.919 | 1.03 | 0.879 | 0.335 | 0.421 | 0.463 | 0.415 | 0.964 | 0.917 | 1.02 | 0.942 | 0.534 | 0.502 | 0.568 | 0.543 | 0.873 | 0.501
LU99A | 0.259 | 0.246 | 0.255 | 0.255 | 0.17 | 0.173 | 0.186 | 0.315 | 0.493 | 0.459 | 0.545 | 0.554 | 0.374 | 0.356 | 0.35 | 0.35 |  | 0.241
